Columns and labels:
[1] = system: KRAS RNA G4-c (KRAS RG4) (RNA, G4) AAGGUGGCGGCGGCUCG; experiment: CD melting; conditions: 1 mM K+, 10 mM Tris-HCl pH 7.4, 2 μM RNA
[2] = system: KRAS RNA G4-c (KRAS RG4) (RNA, G4) AAGGUGGCGGCGGCUCG; experiment: thiazole orange displacement, fluorescence; conditions: 100 mM K+; 10 mM Tris-HCl pH 7.4; 0.25 μM RNA; tracer 0.5 μM thiazole orange displaced
[3] = system: KRAS RNA G4-c (KRAS RG4) (RNA, G4) AAGGUGGCGGCGGCUCG; experiment: EMSA; conditions: 15% native PAGE, Tris-borate-EDTA; 10 μM RNA, 0-50 μM compound
[4] = system: KRAS RNA G4-a (RNA, G4) GCGGCGGCGGAGGCAGCA; experiment: CD melting; conditions: 1 mM K+; 10 mM Tris-HCl pH 7.4; 2 μM RNA, 10 μM compound; Tm alone 66.0 °C
[5] = system: KRAS RNA G4-b (RNA, G4) GGCGGCGGCAGUGGCGGCGG; experiment: CD melting; conditions: 1 mM K+; 10 mM Tris-HCl pH 7.4; 2 μM RNA, 10 μM compound; Tm alone 59.5 °C
[6] = system: KRAS RNA G4-c (KRAS RG4) (RNA, G4) AAGGUGGCGGCGGCUCG; experiment: 1H NMR, imino protons; conditions: K+ (potassium phosphate, concentration not stated), 10% D2O, 25 °C, 200 μM RNA, 1 to 5 equivalents
[7] = system: 5'-Cy5-labeled KRAS RG4 (G4-c) (RNA, G4) AAGGUGGCGGCGGCUCG; experiment: fluorescence quenching titration of Cy5; conditions: 100 mM K+; 10 mM Tris-HCl pH 7.4; 1 μM RNA
[8] = system: 3'-Cy5-labeled KRAS RG4 (G4-c) (RNA, G4) AAGGUGGCGGCGGCUCG; experiment: fluorescence quenching titration of Cy5; conditions: 100 mM K+; 10 mM Tris-HCl pH 7.4; 1 μM RNA
[9] = system: RNA hairpin (RNA, hairpin) GGCCGCCGCAGUGGCGGCGG; experiment: competition: fluorescence recovery of MBD-quenched Cy5-labeled KRAS RG4; conditions: 100 mM K+; 10 mM Tris-HCl pH 7.4; RNA hairpin added as competitor to 1 μM Cy5-G4-c with MBD
[10] = system: DNA hairpin (DNA, hairpin) CGCGCGCGTTTTCGCGCGCG; experiment: as above; conditions: 100 mM K+; 10 mM Tris-HCl pH 7.4; DNA hairpin added as competitor to 1 μM Cy5-G4-c with MBD

For `CC1CCN(c2ccc3c(c2)c2cc(N4CCC(C)CC4)ccc2c2nc4cc5ccccc5cc4nc32)CC1`, the binding [1] was “no” and the EC50 [2] was 45000 nM.

For `CC1CCN(c2ccc3c(c2)c2cc([N+]4(C)CCC(C)CC4)ccc2c2nc4cc(Cl)c(Cl)cc4nc32)CC1` (stereo not shown), the binding [1] was “weak” and the EC50 [2] was 7000 nM.

For `CC1CCN(c2ccc3c(c2)c2cc([N+]4(C)CCC(C)CC4)ccc2c2nc4cc(F)c(F)cc4nc32)CC1` (stereo not shown), the binding [1] was “weak” and the EC50 [2] was 3300 nM.

`CC1CCN(c2ccc3c(c2)c2cc([N+]4(C)CCC(C)CC4)ccc2c2nc4cc5ccccc5cc4nc32)CC1` (stereo not shown) was tested, and the binding [3] was “yes”, the binding [4] was “yes” and the binding [5] was “yes”. For the same molecule, the ΔTm ([1]; 10 μM compound, Tm alone 64.1 °C) was 11.0 °C, the binding [6] was “yes” and the binding [7] was “yes”. For the same molecule, the binding [8] was “yes”, the EC50 [2] was 1500 nM and the binding [9] was “no”. The binding [10] was “no”.

`CC1CCN(c2ccc3c(c2)c2cc([N+]4(C)CCC(C)CC4)ccc2c2nc4ccccc4nc32)CC1` (stereo not shown) was tested, and the binding [1] was “weak” and the EC50 [2] was 1800 nM.

With `COc1cc2nc3c4ccc(N5CCC(C)CC5)cc4c4cc([N+]5(C)CCC(C)CC5)ccc4c3nc2cc1OC` (stereo not shown) the binding [1] was “yes” and the EC50 [2] was 1400 nM.

With `Cc1cc2nc3c4ccc(N5CCC(C)CC5)cc4c4cc([N+]5(C)CCC(C)CC5)ccc4c3nc2cc1C` (stereo not shown) the binding [1] was “yes” and the EC50 [2] was 1500 nM.
